Laboratory results published in patent publication US20170183318A1, “AMIDE COMPOUNDS, METHODS FOR PREPARATION, AND USE THEREOF AS AGENTS FOR THE TREATMENT AND PREVENTION OF DISEASES CAUSED BY RNA- AND/OR DNA-CONTAINING VIRUSES, AND CONCOMITANT DISEASES” (OBSCHESTVO S OGRANICHENNOI OTVETSTVENNOSTIYU …, priority 2014, published 2017).
Where two headings read alike, the source gives them in different places. Starred links: 1 amine or outer side, 2 acyl side, 3 side chain; linkers in the order of their positions; H or OH if unused. Non-standard residues stand in square brackets, D forms with d. Residues, ends and D or L forms follow the SMILES beside them. ξ: configuration not given here. Glutaryl = O=C(CCCC(=O)[*:2])[*:1]; ξH = NC(Cc1c[nH]cn1)C(=O)O

What was measured:
[1] = test system: human respiratory syncytial virus (strain A2); assay: Antiviral activity against RS virus in a murine model of suppressed immune system (lung edema); assay type: in vivo; details: Balb/c mice, cyclophosphan-suppressed, RS-virus pneumonia; 30 mg/kg once daily for 5 days; M ± SD, n = 5; scores from possible 4
Experimental: Antiviral activity of the chemical compounds against human respiratory syncytial virus (strain A2, an infectious titer of 5×10^6 TCID50/mL) was assessed in a Balb/c murine model of viral pneumonia. The virus was inoculated to animals intranasally in a volume of 50 μL under brief ether anesthesia. The immune response in animals to RS virus was suppressed by intraperitoneal administration of cyclophosphan at a dose of 100 mg/kg 5 days before infection. The studied compounds were administered according to the treatment regimen once daily at a dose of 30 mg/kg for 5 days, starting 24 hours after infection. The activity of the compounds was determined by a reduction in edema of the lung infected with respiratory syncytial virus, compared to the control, on day 5 after infection.

[2] = Rat model of nasopharyngitis induced by formalin (nasal mucosa changes, cell elements in nasal lavage); assay type: in vivo; details: Wistar rats, 18 mg/kg for 3 days; for Mucous membrane of nasal passages: Without changes (number of animals): number of animals out of n = 10, control 0 of 20; for Mucous membrane of nasal passages: Discharge mucus from the nasal passages (number of animals): number of animals out of n = 10, control 20 of 20
Experimental: Nasopharyngitis was induced by intranasal administration of formalin to each nasal passage of rats.
The administration of formalin to the nasal passages of rats leads to the dissemination of inflammation to adjacent tissues, resulting in a clinical pattern similar to the symptoms of nasopharyngitis in a human.
After an acclimatization period, the following groups were formed: • intact animals administered intragastrically a physiological solution in an amount of 0.2 ml, without induction of nasopharyngitis; • a control group consisted of animals administered intragastrically a physiological solution in an amount of 0.2 ml for 3 days after induction of nasopharyngitis; and • animals administered the studied compounds at a dose of 18 mg/kg for 3 days after induction of nasopharyngitis.
Clinical observation of each animal was performed every day at least twice daily.
The caused pathology was characterized by hyperplasia, increased number of caliciform cells, pronounced infiltration of mononuclear cells and leucocytes, and mucus hyperproduction by submucosal glands.
After euthanasia, the inflammation pattern in the nasal passages and throat was studied in each group of animals. The nasal passages were washed with 5 mL of physiological solution and the score of cell elements were counted in 1 μL.

human virus hRSV = assay: Antiviral activity against mouse-adapted RS virus (body weight; viral titer in lungs titrated in Hep-2 cells); assay type: in vivo, mice; details: for hRSV in the lungs of mice, Day 5, lg / hRSV in the lungs of mice, Day 7, lg: 10% lung suspension titrated in Hep-2 cells (TCID); for hRSV in the lungs of mice, Day 5, lg / Body weight of the mice on day 5 after infection with hRSV (M ± SD) / hRSV in the lungs of mice, Day 7, lg / Body weight of the mice on day 7 after infection with hRSV (M ± SD): compounds 30 mg/kg, Ribavirin 40 mg/kg; for Body weight of the mice on day 5 after infection with hRSV (M ± SD) / Body weight of the mice on day 7 after infection with hRSV (M ± SD): orally once daily for 5 days, n = 6; for log reduction at 30 mg/kg: human respiratory syncytial virus, HEp-2, po
Experimental: Antiviral effectiveness of the chemical compounds against RSV in an experimental murine model in vivo was determined for human virus hRSV that was previously adapted to the growth in mouse lungs. The animals were infected with the virus at a dose of 0.5 log TCID50 intranasally under brief ether anesthesia in a volume of 0.05 ml/mouse. The studied compounds were administered orally once daily for 5 days according to the treatment regimen at a dose of 30 mg/kg. The first administration was made 24 hours after infection. Normal saline solution was administered to mice as placebo. Intact animals served as a negative control and were hold in a separate room under the same conditions as the experimental animals. Each experimental group comprised 12 animals.
The antiviral activity of the studied compounds was determined by the efficiency in the prevention of weight loss and by suppression of the reproduction of hRSV in the mouse lungs by measuring a viral titer in the experimental groups relative to the control on days 5 and 7 after infection.
In addition, the therapeutic action of the compounds of general formula I was determined by their ability to suppress the reproduction of hRSV in the mouse lungs on days 5 and 7 after infection. The viral titer was determined by the titration of a 10% lung suspension in Hep-2 cell culture. The result was registered 2 days after the incubation at 37° C. by TCID.

[3] = test system: herpes simplex virus belonging to antigenic type 2; assay: Murine model of experimental herpetic meningoencephalitis (mortality); assay type: in vivo, white outbred mice; details: Mus musculus, po, 336 h
Experimental: In the study, herpes simplex virus belonging to antigenic type 2 was used. White outbred mice weighing 7-8 g were infected i/c (intracerebrally) in a volume of 0.05 ml/mouse comprising a dose of 10LD50. The infectious dose of the virus that caused 100% mortality in mice was 10LD50. Each experimental group comprised 20 mice. Intact animals served as control and were hold in a separate room under the same conditions as the experimental animals. The antiviral activity of the compounds of general formula I was studied by oral administration of the compounds to infected mice once daily at a dose of 30 mg/kg/mouse 24, 48, 72, 96, and 120 hours after infection of the animals with the virus. The mice of the control group were administered placebo (0.2 mL of physiological solution) under the same conditions. The animals were monitored for 14 days after infection by registration the mouse death in the groups.
Each animal was subjected to once-daily observation. The observation included the assessment of general behavior and body condition of animals. The animals were handled according to the International Standards.
The activity of the compounds was evaluated by comparing mortality rates in the groups of animals administered a preparation and placebo.

[4] = Solubility in water noted for the isolated product; assay type: physicochemical; details: qualitative remark on the isolated product
[5] = test system: Coxsackie A2 virus (strain HCXV A2); assay: Antiviral activity against Coxsackie virus in vivo (mortality and life expectancy of infected mice); details: for inhibition in vivo at 30 mg/kg / mortality at 30 mg/kg: Mus musculus, po; for inhibition in vivo at 30 mg/kg: 168 h, vs virus control, read-out: Protective index (%); for inhibition in vivo at 30 mg/kg / Average life expectancy (days), Compared with control / Average life expectancy (days), Relative: 30 mg/kg orally once daily for 7 days; for mortality at 30 mg/kg: 360 h, read-out: Total mortality, %; for Average life expectancy (days), Compared with control: difference vs virus control; for Average life expectancy (days), Relative: mice infected with 10LD50 HCXV A2
Experimental: In the study a trypsin-dependent strain HCXV A2 was used, previously adapted and causing death in mice from Coxsackie virus infection.
The experiment was carried out in white mice weighing 6 to 7 g. The animals were infected intramuscularly with a dose of 0.1 mL/mouse. The used infectious dose causing mortality in mice was 10LD50.
The ability of compounds to provide a therapeutic effect was determined by the mortality rate of HCXV A2 virus-infected mice in the experimental group relative to the group of untreated animals.
The studied compounds and placebo were administered orally according to the treatment regimen. Normal saline solution was administered to mice as placebo. Intact animals served as a negative control and were hold in a separate room under the same conditions as the experimental animals.
For the experiment, groups were formed with 14-15 animals each. Compounds were administered at a dose of 30 mg/kg of body weight. The studied compounds were administered orally once daily for 7 days (first administration was made 24 hours after infection). The animals were monitored for 15 days during which the animals were weighed and the mortality rate was registered every day.

Staphylococcus aureus = assay: Murine model of staphylococcal pneumonia (bacterial growth from lung imprints); assay type: in vivo, outbred mice; details: reference drug, intravenously, single dose of 20 mg/kg; lung imprints; control 82.5
Experimental: The efficiency of the compounds was evaluated in outbred mice (females) infected with Staphylococcus aureus (mouse-adapted strain). The administration of the compounds was started 5 days before infection, orally at doses of 15 and 30 mg/kg in a volume of 0.2 mL. On day 5, the mice were infected intranasally under brief ether anesthesia by administration of Staphylococcus aureus at a dose of 10^9 CFU in a volume of 0.05 mL. One hour after infection, the administration of the compounds to the mice was continued at the above-indicated doses for additional 2 days. The reference drug was ampicillin administered intravenously at a single dose of 20 mg/kg. The control was mice infected with Staphylococcus aureus intranasally and treated with PBS. The mice were sacrificed two days after, the breast was dissected, and lung imprints were made in Petri dishes with Columbia agar. After incubation for 24 hours at 30° C., the presence (or absence) of Staphylococcus aureus bacterial growth was fixed in comparison with the control. The intensity of bacterial growth was evaluated in scores and expressed in %.

[6] = 120 h, read-out: Suppression of the reproduction of hRSV in the lungs of mice, Day 5, Δlg
[7] = 168 h, read-out: Suppression of the reproduction of hRSV in the lungs of mice, Day 7, Δlg

Row | Structure (SMILES) | Mucous membrane of nasal passages: Without changes (number of animals) [2] | Mucous membrane of nasal passages: Discharge mucus from the nasal passages (number of animals) [2] | mortality at 30 mg/kg [3] [%] | Solubility in water [4] | inhibition in vivo at 30 mg/kg [5] [%] | mortality at 30 mg/kg [5] [%] | Average life expectancy (days), Compared with control [5] | Average life expectancy (days), Relative [5] [days] | further results
1 | O=C(O)CCCC(=O)NCCC1CCCNC1 (stereo not shown) [Compound 5] | 5 | 5 | 35 |  |  |  |  |  | Degree of lung edema on day 5 after infection, score [1]: 1.10 ± 0.19 score; hRSV in the lungs of mice, Day 5, lg (human virus hRSV): 2.17 ± 0.37 lg; Body weight of the mice on day 5 after infection with hRSV (M ± SD) (human virus hRSV): 16.02 ± 0.16; hRSV in the lungs of mice, Day 7, lg (human virus hRSV): 0.88 ± 0.31 lg; Body weight of the mice on day 7 after infection with hRSV (M ± SD) (human virus hRSV): 17.78 ± 0.26; log reduction at 30 mg/kg (human virus hRSV; [6]): 2.43 ± 0.37; log reduction at 30 mg/kg (human virus hRSV; [7]): 2.93 ± 0.31
2 | CC(C)(CCC(=O)O)C(=O)NCCc1cnc[nH]1 [Compound 45] |  |  |  | freely soluble in water |  |  |  |  | 
3 | COC(=O)CNC(=O)C(Cc1c[nH]cn1)NC(=O)CCCC(=O)O (stereo not shown) [Compound 193] (Glutaryl-[ξH]-Gly-OMe) | 6 | 4 | 25 |  | 45.3 | 40.1 | +14.2 days | 24.9 | Degree of lung edema on day 5 after infection, score [1]: 0.80 ± 0.17 score
4 | CC1(C)S[C@@H]2[C@H](NC(=O)[C@H](N)c3ccccc3)C(=O)N2[C@H]1C(=O)O [Ampicillin, ampicillin, reference compound] |  |  |  |  |  |  |  |  | Bacterial growth, in % (Staphylococcus aureus): 25 (sporadic colonies (up to 10))
5 | O=C(O)CCC(O)C(=O)NCCc1cnc[nH]1 (stereo not shown) [Compound 67] |  |  |  | freely soluble in water | 50 | 35.7 | +16.2 days | 27.0 | 
6 | NS(=O)(=O)CCC(=O)NCCc1c[nH]cn1 [Compound 145] |  |  |  | freely soluble in water |  |  |  |  | 
7 | O=C(O)CCCNC(=O)CCc1cnc[nH]1 [Compound 68] | 3 | 7 | 30 | freely soluble in water |  |  |  |  | 
8 | COC(=O)C(CO)NC(=O)C(Cc1cnc[nH]1)NC(=O)CCCC(=O)O (stereo not drawn) [Compound 149] (Glutaryl-His-Ser-OMe; configuration not given here) | 5 | 5 | 25 |  | 27.2 | 53.3 | +8.9 days | 19.6 | hRSV in the lungs of mice, Day 5, lg (human virus hRSV): 2.6 ± 0.1 lg; Body weight of the mice on day 5 after infection with hRSV (M ± SD) (human virus hRSV): 15.44 ± 0.31; hRSV in the lungs of mice, Day 7, lg (human virus hRSV): 2.3 ± 0.4 lg; Body weight of the mice on day 7 after infection with hRSV (M ± SD) (human virus hRSV): 17.32 ± 0.59; log reduction at 30 mg/kg (human virus hRSV; [6]): 1.9 ± 0.1; log reduction at 30 mg/kg (human virus hRSV; [7]): 1.4 ± 0.4
